Source: US6800101B2, “Deactivatable biocides for hydrocarbonaceous products” (priority 2001, dated 2004)

How the values were obtained:
alkane degrading culture = experiment: Evaluation of biocides: growth inhibition on FT diesel and ALAD diesel; format: cell-based; on microbial growth: key: −: No Growth; +: Growth (White Unless Otherwise Indicated)
Description: Growth Media: A standard minimal media containing only inorganic nutrients required for bacterial growth was used. The medium used to supply inorganic micronutrients to the growing culture of alkane degrading organisms consisted of 0.1 g/L MgSO4.7H2O, 0.5 g/L NaNO3, 0.02 millimolar FeSO4 and 0.63 g/L K2HPO4 and 0.19 g/L KH2PO4 to achieve a pH of 7 to 7.3.
Test Conditions: 90 ml of growth media and 10 ml of either FT diesel or low sulfur (ALAD) diesel was added to 250 ml flasks. […] In addition to 2 alkynes, glutaraldehyde (glutaric dialdehyde 50%), was tested. The following summarizes the test conditions:
Sterile control (media boiled prior to adding FT or ALAD, not inoculated)
Inculated control (no inhibitor)
100 ppm inhibitor (on a total test volume basis or 1000 ppm in diesel)
1% inhibitor (on a total test volume basis or 10% in diesel).
After inoculation, the flasks were place on a shaker-table (135 rpm) at room temperature and observed daily.

bacteria = format: cell-based
[1] = system: Larval Sheepshead Minnow (Cyprinodon variegatus); experiment: in vivo; format: in vivo
Description: (§1) […]. EPA/600/4-90/027F Washington D.C. section 2.02, paragraph 1.) conducted at Pacific Eco-Risk Laboratories, Martinez, Calif.
(§2) LOEC is the Lowest Observable Effect Concentration and is defined as the minimum concentration where mortality is observed for the test species. […] LC-50, the concentration that will cause mortality of 50% of the organisms tested within 96 h, is a calculated value based on all observations.
(§3) The solutions were mixed for 48 hours prior to the start of the bioassays. The solutions were diluted to perform bioassays at starting glutaraldehyde concentrations of 100, 50, 37.5, 25, and 10, 5 mg/L

in vivo = format: in vivo; settings: Cyprinodon variegatus (sheepshead minnow), in vivo
Description: as §1, §2, §3

[2] = Cyprinodon variegatus (sheepshead minnow), in vivo, 96 h

O=CCCCC=O [G, glutaraldehyde]
effectiveness as biocide (alkane degrading culture; ALAD diesel fuel): effective at a lower concentration | microbial growth (alkane degrading culture; FT Diesel + 1 Wt %, Day 0): − | microbial growth (alkane degrading culture; FT Diesel + 1 Wt %, Day 1): − | microbial growth (alkane degrading culture; FT Diesel + 1 Wt %, Day 5): − | microbial growth (alkane degrading culture; FT Diesel + 1 Wt %, Day 7): − | microbial growth (alkane degrading culture; FT Diesel + 1 Wt %, Day 8): − | microbial growth (alkane degrading culture; FT Diesel + 1 Wt %, Day 19): − | microbial growth (alkane degrading culture; FT Diesel + 100 ppm, Day 0): − | microbial growth (alkane degrading culture; FT Diesel + 100 ppm, Day 1): − | microbial growth (alkane degrading culture; FT Diesel + 100 ppm, Day 5): − | microbial growth (alkane degrading culture; FT Diesel + 100 ppm, Day 7): − | microbial growth (alkane degrading culture; FT Diesel + 100 ppm, Day 8): − | microbial growth (alkane degrading culture; FT Diesel + 100 ppm, Day 19): + | effectiveness as biocide (alkane degrading culture; Fischer-Tropsch diesel fuel): effective at a lower concentration | microbial growth (alkane degrading culture; LA (ALAD) Diesel + 1 Wt %, Day 0): − | microbial growth (alkane degrading culture; LA (ALAD) Diesel + 1 Wt %, Day 1): − | microbial growth (alkane degrading culture; LA (ALAD) Diesel + 1 Wt %, Day 5): − | microbial growth (alkane degrading culture; LA (ALAD) Diesel + 1 Wt %, Day 7): − | microbial growth (alkane degrading culture; LA (ALAD) Diesel + 1 Wt %, Day 8): − | microbial growth (alkane degrading culture; LA (ALAD) Diesel + 1 Wt %, Day 19): − | microbial growth (alkane degrading culture; LA (ALAD) Diesel + 100 ppm, Day 0): − | microbial growth (alkane degrading culture; LA (ALAD) Diesel + 100 ppm, Day 1): − | microbial growth (alkane degrading culture; LA (ALAD) Diesel + 100 ppm, Day 5): − | microbial growth (alkane degrading culture; LA (ALAD) Diesel + 100 ppm, Day 7): − | microbial growth (alkane degrading culture; LA (ALAD) Diesel + 100 ppm, Day 8): − | microbial growth (alkane degrading culture; LA (ALAD) Diesel + 100 ppm, Day 19): − | microbial growth (bacteria): no growth | LOEC [1, 2]: 25 mg/L | NOEC [1, 2]: 13 mg/L | LC50 ([1]; second experiment, Glutaraldehyde 100 mg/L, MEA 125 mg/L, molar ratio 1:2, mixed 48 hours): >100 µg/mL | LC50 at 96 h (in vivo): > 100 µg/mL
